Laboratory results as given in patent publication US9045482B2, “Pyrido[4,3-B]indoles and methods of use” (Medivation Technologies, Inc., priority 2009, dated 2015).

Experiments:
[1] = biological target: human recombinant dopamine D2L receptor (Homo sapiens, UniProt P14416); assay: Dopamine D2L radioligand binding ([3H]Spiperone)
Description: To evaluate in radioligand binding assays the activity of compounds of the invention, human recombinant dopamine D2L receptor expressed in Chinese hamster ovary (CHO) cells [Grandy, D. K. et al., Proc. Natl. Acad. Sci. USA. (1989), 86:9762; Hayes, G. et al., Mol. Endocrinol. […] Compounds of the invention were incubated with 0.16 nM [^3H]Spiperone for 120 min at 25° C. Non-specific binding was estimated in the presence of 10 μM Haloperidol. Receptor proteins were filtered and washed, the filters were then counted to determine [^3H]Spiperone specifically bound. Compounds were screened at 1 μM or lower, using 1% DMSO as vehicle. Biochemical assay results are presented as the percent inhibition of specific binding in Table 3.

[2] = biological target: T1, human recombinant serotonin (5-Hydroxytryptamine) 5-HT2A receptor (Homo sapiens, UniProt P28223); assay: Serotonin 5-HT2A radioligand binding ([3H]Ketanserin)
T1 construct: expressed in transfected cells; host or cells: Chinese hamster ovary (CHO-K1) cells
Description: (1997), 68:1998] in a 50 mM Tris-HCl buffer, pH 7.4, was used. Compounds of the invention were incubated with 0.5 nM [^3H]Ketanserin for 60 min at 25° C. Non-specific binding was estimated in the presence of 1 μM Mianserin. Receptor proteins were filtered and washed, the filters were then counted to determine [^3H]Ketanserin specifically bound. Compounds were screened at 1 μM or lower, using 1% DMSO as vehicle. Biochemical assay results are presented as the percent inhibition of specific binding in Table 4.

[3] = biological target: T2, rat adrenergic α1A receptor (Rattus norvegicus, UniProt P43140); assay: Adrenergic α1A radioligand binding ([3H]Prozosin); design: species or system Wistar Rat; conditions: 0.1 μM ligand conc.
T2 construct: rat adrenergic α1A receptor obtained from Wistar Rat submaxillary glands; from tissue; host or cells: Wistar Rat submaxillary glands
T2 sequence (P43140 1-466): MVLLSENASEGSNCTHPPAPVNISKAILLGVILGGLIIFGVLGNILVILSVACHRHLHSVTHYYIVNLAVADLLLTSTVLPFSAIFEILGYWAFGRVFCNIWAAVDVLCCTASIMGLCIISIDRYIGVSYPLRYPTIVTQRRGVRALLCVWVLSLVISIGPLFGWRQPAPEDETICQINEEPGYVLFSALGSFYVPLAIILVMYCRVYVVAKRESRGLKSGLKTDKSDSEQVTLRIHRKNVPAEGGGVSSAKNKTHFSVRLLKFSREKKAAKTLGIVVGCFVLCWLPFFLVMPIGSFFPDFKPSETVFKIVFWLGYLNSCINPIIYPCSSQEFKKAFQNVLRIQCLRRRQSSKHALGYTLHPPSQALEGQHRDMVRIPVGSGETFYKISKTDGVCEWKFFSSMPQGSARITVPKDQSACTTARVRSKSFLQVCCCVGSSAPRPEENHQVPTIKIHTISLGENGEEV
Description: To evaluate in radioligand binding assays the activity of compounds of the invention, rat adrenergic α1A receptor obtained from Wistar Rat submaxillary glands [Michel, A. D. et al., Br. J. Pharmacol. (1989), 98:883] in a modified Tris-HCl buffer (50 mM Tris-HCl buffer, pH 7.4, 0.5 mM EDTA) was used. Compounds of the invention were incubated with 0.25 nM [^3H]Prozosin for 60 min at 25° C. Non-specific binding was estimated in the presence of 10 μM phentolamine. Receptor proteins were filtered and washed, the filters were then counted to determine [^3H]Prozosin specifically bound. Compounds of the invention were screened at 1 μM or lower, using 1% DMSO as vehicle. Compounds of the invention were tested in this biochemical assay. Biochemical assay results for representative compounds were presented as the percent inhibition of specific binding in Table 3.

[4] = biological target: T3, human recombinant adrenergic α2C receptor (Homo sapiens, UniProt P18825); assay: Adrenergic α2C radioligand binding ([3H]MK-912); conditions: 0.1 μM ligand conc.
T3 construct: expressed in transfected cells; host or cells: insect Sf9 cells
T3 sequence (P18825 1-462): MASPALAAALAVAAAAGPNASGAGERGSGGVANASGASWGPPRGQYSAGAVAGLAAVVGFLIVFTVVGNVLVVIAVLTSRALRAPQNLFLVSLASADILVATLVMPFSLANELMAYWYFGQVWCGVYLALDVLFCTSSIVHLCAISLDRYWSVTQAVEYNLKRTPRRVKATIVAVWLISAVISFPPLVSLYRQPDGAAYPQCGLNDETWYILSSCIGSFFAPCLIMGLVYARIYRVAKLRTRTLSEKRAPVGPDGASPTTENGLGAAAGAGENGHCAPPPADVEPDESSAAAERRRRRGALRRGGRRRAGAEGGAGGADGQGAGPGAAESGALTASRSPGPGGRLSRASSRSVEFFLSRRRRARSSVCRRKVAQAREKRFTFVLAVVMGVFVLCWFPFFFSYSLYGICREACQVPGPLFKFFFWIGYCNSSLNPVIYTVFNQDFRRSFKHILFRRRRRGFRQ
Description: To evaluate in radioligand binding assays the activity of compounds of the invention, human recombinant adrenergic α2C receptor expressed in insect Sf9 cells [Uhlen, S. et al., J. Pharmacol. Exp. Ther. 1994), 271:1558] in a modified Tris-HCl buffer (50 mM Tris-HCl, pH 7.4, 12.5 mM MgCl2, 2 mM EDTA) was used. Compounds of the invention were incubated with 1 nM [^3H]MK-912 for 60 min at 25° C. Non-specific binding was estimated in the presence of 10 μM WB-4101. Receptor proteins were filtered and washed, the filters were then counted to determine [^3H]MK-912 specifically bound. Compounds were screened at 1 μM or lower, using 1% DMSO as vehicle. Compounds of the invention were tested in this biochemical assay. Biochemical assay results for representative compounds were presented as the percent inhibition of specific binding in Table 3.

[5] = biological target: human recombinant serotonin (5-Hydroxytryptamine) 5-HT7 receptor (Homo sapiens, UniProt P34969); assay: Serotonin 5-HT7 radioligand binding ([3H]LSD); conditions: 0.1 μM ligand concentration
Description: Compounds of invention were incubated with 5.5 nM [^3H]Lysergic acid diethylamide (LSD) for 2 h at 25° C. […] Receptor proteins were filtered and washed, the filters were then counted to determine [^3H]LSD specifically bound. Compounds were screened at 1 μM or lower, using 1% DMSO as vehicle. Biochemical assay results are presented as the percent inhibition of specific binding in Table 4.

Chain of human recombinant dopamine D2L receptor (P14416 whole entry): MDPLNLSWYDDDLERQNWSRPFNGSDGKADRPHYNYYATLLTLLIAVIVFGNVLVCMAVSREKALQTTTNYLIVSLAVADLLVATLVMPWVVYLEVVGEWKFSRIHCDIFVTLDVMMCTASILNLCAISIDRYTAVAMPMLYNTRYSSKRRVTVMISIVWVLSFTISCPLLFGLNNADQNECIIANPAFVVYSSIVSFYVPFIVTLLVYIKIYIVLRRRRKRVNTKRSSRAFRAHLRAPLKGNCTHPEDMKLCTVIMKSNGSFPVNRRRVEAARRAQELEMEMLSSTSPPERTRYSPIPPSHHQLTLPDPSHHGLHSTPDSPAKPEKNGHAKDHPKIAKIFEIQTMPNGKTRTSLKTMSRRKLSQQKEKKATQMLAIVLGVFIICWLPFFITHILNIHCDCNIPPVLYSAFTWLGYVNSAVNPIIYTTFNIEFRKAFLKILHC
T1 sequence (P28223 whole entry): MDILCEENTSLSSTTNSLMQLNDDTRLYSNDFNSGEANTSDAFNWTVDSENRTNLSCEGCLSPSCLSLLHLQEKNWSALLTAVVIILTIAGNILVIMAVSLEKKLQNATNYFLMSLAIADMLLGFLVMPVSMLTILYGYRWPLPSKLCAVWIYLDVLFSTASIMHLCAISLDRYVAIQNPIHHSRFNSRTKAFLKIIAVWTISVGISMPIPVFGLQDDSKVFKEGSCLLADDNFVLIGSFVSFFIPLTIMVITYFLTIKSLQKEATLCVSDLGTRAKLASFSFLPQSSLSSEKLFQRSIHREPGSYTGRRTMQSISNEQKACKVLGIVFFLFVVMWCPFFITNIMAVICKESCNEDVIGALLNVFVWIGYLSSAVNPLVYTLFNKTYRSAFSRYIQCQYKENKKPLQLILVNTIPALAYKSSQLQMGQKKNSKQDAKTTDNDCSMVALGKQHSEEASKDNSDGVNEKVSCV
Chain of human recombinant serotonin (5-Hydroxytryptamine) 5-HT7 receptor (P34969 whole entry): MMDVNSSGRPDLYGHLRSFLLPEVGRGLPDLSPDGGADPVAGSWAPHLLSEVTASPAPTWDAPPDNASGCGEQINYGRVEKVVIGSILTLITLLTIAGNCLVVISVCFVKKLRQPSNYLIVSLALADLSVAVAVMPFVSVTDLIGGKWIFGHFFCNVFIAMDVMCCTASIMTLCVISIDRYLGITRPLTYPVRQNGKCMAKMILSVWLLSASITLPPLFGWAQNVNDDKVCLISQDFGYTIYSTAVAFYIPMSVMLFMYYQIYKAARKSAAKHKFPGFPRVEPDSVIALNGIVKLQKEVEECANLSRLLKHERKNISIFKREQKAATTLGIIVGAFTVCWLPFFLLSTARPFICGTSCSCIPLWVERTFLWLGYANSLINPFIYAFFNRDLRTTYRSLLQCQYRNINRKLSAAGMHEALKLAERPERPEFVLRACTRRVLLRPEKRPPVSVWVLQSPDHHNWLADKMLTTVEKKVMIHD

| Structure (SMILES) | Percent Inhibition of ligand binding Dopamine D2L ([1]; 1 μM ligand conc.) [%] | Percent Inhibition of ligand binding Serotonin 5-HT2A ([2]; 1 μM ligand concentration) [%] | Percent Inhibition of ligand binding Adrenergic α1A [3] [%] | Percent Inhibition of ligand binding Adrenergic α2C [4] [%] | Percent Inhibition of ligand binding Dopamine D2L ([1]; 0.1 μM ligand conc.) [%] | Percent Inhibition of ligand binding Serotonin 5-HT2A ([2]; 0.1 μM ligand concentration) [%] | Percent Inhibition of ligand binding Serotonin 5-HT7 [5] [%] |
| --- | --- | --- | --- | --- | --- | --- | --- |
| Fc1ccc(CCn2c3c(c4cc(Cl)ccc42)C2CCCN2CC3)cc1 (stereo not drawn) [Compound 1, 7-(4-fluorophenethyl)-10-chloro-2,3,5,6,7,11c-hexahydro-1H-indolizino[7,8-b]indole] | 9 | 11 |  |  |  |  |  |
| Fc1ccc(CCn2c3c(c4cc(Cl)ccc42)CN2CCCC2C3)cc1 (stereo not drawn) [Compound 2, 10-(4-fluorophenethyl)-7-chloro-2,3,5,10,11,11a-hexahydro-1H-indolizino[7,6-b]indole] | 13 | 41 |  |  |  |  |  |
| C/C(=C\n1c2c(c3cc(C)ccc31)C1CCCN1CC2)c1ccc(C)nc1 (stereo not drawn) [Compound 32, (E)-10-methyl-7-(2-(6-methylpyridin-3-yl)prop-1-enyl)-2,3,5,6,7,11c-hexahydro-1H-indolizino[7,8-b]indole] |  |  | 55 | 45 | 3 | 50 | 61 |
| Cc1cnc2c(c1)c1c(n2CCc2ccc(C)nc2)CCN2CCCC12 (stereo not drawn) [Compound 33, 10-methyl-7-(2-(6-methylpyridin-3-yl)ethyl)-2,3,5,6,7,1c-hexahydro-1H-pyrido[3′,2′:4,5]pyrrolo[2,3-g]indolizine] |  |  | 26 | 4 | 1 | 29 | 44 |
| Cc1ccc(CCn2c3c(c4cccnc42)C2CCCN2CC3)cn1 (stereo not drawn) [Compound 34, 7-(2-(6-methylpyridin-3-yl)ethyl)-2,3,5,6,7,1c-hexahydro-1H-pyrido[3′,2′:4,5]pyrrolo[2,3-g]indolizine] |  |  | −9 | 1 | 6 | 15 | 18 |
| Cc1ccc(CCn2c3c(c4cccnc42)CN2CCCC2C3)cn1 (stereo not drawn) [Compound 35, 11-(2-(6-methylpyridin-3-yl)ethyl)-7,8,9,9a,10,11-hexahydro-5H-pyrido[3′,2′:4,5]pyrrolo[3,2-f]indolizine] |  |  | −2 | 2 | −3 | 31 | 6 |
| Cc1cnc2c(c1)c1c(n2CCc2ccc(C)nc2)CC2CCCN2C1 (stereo not drawn) [Compound 36, 3-methyl-11-(2-(6-methylpyridin-3-yl)ethyl)-7,8,9,9a,10,11-hexahydro-5H-pyrido[3′,2′:4,5]pyrrolo[3,2-f]indolizine] |  |  | 26 | 3 | −3 | 35 | 23 |
| O=C(Cn1c2c(c3cccnc31)CN1CCCC1C2)N1CCCCC1 (stereo not drawn) [Compound 37, 1-(piperidin-1-yl)-2-(8,9,9a,10-tetrahydro-5H-pyrido[3′,2′:4,5]pyrrolo[3,2-f]indolizin-11(7H)-yl)ethanone] |  |  | −6 | 4 | −5 | 33 | 3 |
| O=C(Cn1c2c(c3cccnc31)C1CCCN1CC2)N1CCCCC1 (stereo not drawn) [Compound 38, 1-(piperidin-1-yl)-2-(2,3,5,6-tetrahydro-1H-pyrido[3′,2′:4,5]pyrrolo[2,3-g]indolizin-7(11cH)-yl)ethanone] |  |  | −6 | −6 | 24 | 19 | 23 |
